Consider 19 molecules from ChEMBL document CHEMBL5316285 (J Med Chem, 2023).

The source made the active and inactive calls. The calls are words filed in the database; no cut-off is given here. Some results are limits rather than exact numbers.

Data set [1] concerns the target Nicotinamide phosphoribosyltransferase (Homo sapiens, UniProt P43490). In words: Inhibition of NAMPT (unknown origin) using NAM as substrate preincubated for 5 mins followed by substrate addition measured after 15 mins in presence of ATP by fluorescence based microplate reader analysis.
Data set [2] concerns A2780. In words: Antiproliferative activity against human A2780 cells incubated for 72 hrs in carbon-dioxide atmosphere measured by cell counting kit-8 method. The data set is classed as functional, cell-based. Conditions: A2780, 72 h. For orientation: Tetrazolium dyes change colour on reduction, which living cells bring about.
Data set [3] addresses T1, von Hippel-Lindau disease tumor suppressor/Nicotinamide phosphoribosyltransferase (Homo sapiens, UniProt P43490+P40337). In words: Protac activity at VHL/NAMPT in human A2780 cells assessed as degradation of NAMPT using NAM as substrate preincubated for 5 mins followed by substrate addition measured after 5 mins in presence of ATP by luminesence based microplate reader analysis. The data set is classed as cell-based.
Target sequence in this assay (P43490 whole entry): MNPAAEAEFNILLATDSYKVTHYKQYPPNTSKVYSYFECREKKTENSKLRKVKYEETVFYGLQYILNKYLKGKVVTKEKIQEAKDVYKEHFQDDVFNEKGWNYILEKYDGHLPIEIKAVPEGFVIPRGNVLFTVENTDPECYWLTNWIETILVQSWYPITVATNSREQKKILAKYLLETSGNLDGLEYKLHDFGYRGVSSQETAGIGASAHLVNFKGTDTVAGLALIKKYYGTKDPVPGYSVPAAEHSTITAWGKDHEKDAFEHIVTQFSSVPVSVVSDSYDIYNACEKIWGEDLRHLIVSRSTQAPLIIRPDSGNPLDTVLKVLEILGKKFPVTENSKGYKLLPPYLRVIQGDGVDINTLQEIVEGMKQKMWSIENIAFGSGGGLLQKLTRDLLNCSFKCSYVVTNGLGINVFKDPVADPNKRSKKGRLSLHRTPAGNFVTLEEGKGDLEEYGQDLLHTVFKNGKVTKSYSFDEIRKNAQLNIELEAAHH
Target sequence in this assay (P40337 whole entry): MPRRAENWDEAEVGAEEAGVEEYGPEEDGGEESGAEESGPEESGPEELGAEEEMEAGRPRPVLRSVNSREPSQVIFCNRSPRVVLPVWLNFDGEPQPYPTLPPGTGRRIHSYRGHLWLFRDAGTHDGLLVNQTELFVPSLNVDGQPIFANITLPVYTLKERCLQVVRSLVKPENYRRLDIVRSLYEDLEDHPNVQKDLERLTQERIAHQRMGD

Data set [4] has as its target T1, von Hippel-Lindau disease tumor suppressor/Nicotinamide phosphoribosyltransferase. In words: Protac activity at VHL/NAMPT in human A2780 cells assessed as reduction of NAMPT protein level at 0.1 to 100 nM measured after 24 hrs by Western blotting analysis. The settings on record: dose 0.1-100 nM. In kind it is cell-based. A general note: A western blot detects proteins with antibodies after separation by electrophoresis.
Target sequence in this assay (P40337 whole entry, looked up): as the sequence (P40337 whole entry) above
Target sequence in this assay (P43490 whole entry, looked up): as the sequence (P43490 whole entry) above

Data set [5] shares this target. In words: Protac activity at VHL/NAMPT in human A2780 cells assessed as reduction of NAMPT protein level at 10 nM measured after 24 hrs by Western blotting analysis. The data set is classed as cell-based.
Target sequence in this assay (P40337 whole entry, looked up): as the sequence (P40337 whole entry) above
Target sequence in this assay (P43490 whole entry, looked up): as the sequence (P43490 whole entry) above
Data set [6] has the same target. In words: Protac activity at VHL/NAMPT in human A2780 cells assessed as induction of NAMPT degradation measured at 0.005 to 10 microM after 24 hrs by Western blotting analysis. The data set is classed as cell-based. Conditions: dose 0.005-10 µM.
Target sequence in this assay (P40337 whole entry, looked up): as the sequence (P40337 whole entry) above
Target sequence in this assay (P43490 whole entry, looked up): as the sequence (P43490 whole entry) above
Data set [7] shares this target. In words: Protac activity at VHL/NAMPT in human A2780 cells assessed as induction of NAMPT degradation measured at 5 to 50 nM after 24 hrs by Western blotting analysis. In kind it is cell-based. Conditions: dose 5-50 nM.
Target sequence in this assay (P40337 whole entry, looked up): as the sequence (P40337 whole entry) above
Target sequence in this assay (P43490 whole entry, looked up): as the sequence (P43490 whole entry) above
The target is the same in data set [8]. In words: Protac activity at VHL/NAMPT in human A2780 cells assessed as induction of NAMPT degradation measured at 500 to 5000 nM after 24 hrs by Western blotting analysis. The data set is classed as cell-based. The settings on record: dose 500-5000 nM.
Target sequence in this assay (P40337 whole entry, looked up): as the sequence (P40337 whole entry) above
Target sequence in this assay (P43490 whole entry, looked up): as the sequence (P43490 whole entry) above
Data set [9] in a line: Retinal toxicity in nude mouse xenografted with human A2780 cells at 2 uM/Kg, IV once every 3 days upto 21 days by microscopic analysis. Conditions: 504 h, time 21 day. Background: Xenograft models place foreign cells or tissue in a host animal.
The subject of data set [10] is CT26. In words: Antiproliferative activity against mouse CT26 cells. The data set is classed as functional, cell-based.
The test system of data set [11] is A2780. In words: Antitumor activity against human A2780 cells xenografted in nude mouse assessed as tumor growth inhibition at 2 uM/Kg, IV once every 3 days upto 21 days relative to control. In kind it is functional. The settings on record: time 21 day, at 2 µmol/kg.
The target in data set [12] is T1, von Hippel-Lindau disease tumor suppressor/Nicotinamide phosphoribosyltransferase. In words: Protac activity at VHL/NAMPT in human A2780 cells assessed as induction of NAMPT degradation measured at 0.2 to 500 nM after 24 hrs by Western blotting analysis. The data set is classed as cell-based. Conditions: dose 0.2-500 nM.
Target sequence in this assay (P40337 whole entry, looked up): as the sequence (P40337 whole entry) above
Target sequence in this assay (P43490 whole entry, looked up): as the sequence (P43490 whole entry) above
Data set [13] is described as follows: Toxicity in nude mouse xenografted with human A2780 cells assessed as pathological damage in kidney at 2 uM/Kg, IV once every 3 days upto 21 days by hematoxylin and eosin staining analysis. The data set is classed as tissue-based. Conditions: 504 h, time 21 day.
The nature of data set [14]: Toxicity in nude mouse xenografted with human A2780 cells assessed as pathological damage in lung at 2 uM/Kg, IV once every 3 days upto 21 days by hematoxylin and eosin staining analysis. In kind it is tissue-based. The settings on record: 504 h, time 21 day.
The nature of data set [15]: Toxicity in nude mouse xenografted with human A2780 cells assessed as loss in body weight at 2 uM/Kg, IV once every 3 days upto 21 days. The settings on record: 504 h, time 21 day.

Nicotinamide phosphoribosyltransferase, sequence (P43490 whole entry): as above

The IC50 is the concentration at which inhibition is half-maximal. What is called DC50 is the concentration giving 50% degradation. For the molecule `Cc1ncsc1-c1ccc([C@H](C)NC(=O)[C@@H]2C[C@@H](O)CN2C(=O)[C@@H](NC(=O)COCCOCCN2CCN(S(=O)(=O)c3ccc(NC(=O)NCc4cccnc4)cc3)CC2)C(C)(C)C)cc1`, the results for the IC50 in [1] and in [2] were 150 nM and 1230 nM, respectively. Moreover, the DC50 in data set [3] was more than 100 nM. In [4], the outcome was inactive.

`Cc1ncsc1-c1ccc([C@H](C)NC(=O)[C@@H]2C[C@@H](O)CN2C(=O)[C@@H](NC(=O)CCCCCCN2CCN(S(=O)(=O)c3ccc(NC(=O)NCc4cccnc4)cc3)CC2)C(C)(C)C)cc1`: the IC50 in [1] was found to be 120 nM; in data set [2] it was 96 nM. Moreover, in data set [3], the DC50 is more than 10000 nM.

Take `Cc1ncsc1-c1ccc([C@H](C)NC(=O)[C@@H]2C[C@@H](O)CN2C(=O)[C@@H](NC(=O)CCCCCCCCCCCN2CCN(S(=O)(=O)c3ccc(NC(=O)NCc4cccnc4)cc3)CC2)C(C)(C)C)cc1`: the values for the IC50 in [1] and in [2] were 310 nM and 30 nM, respectively. Moreover, in data set [3], the DC50 came out at 2.4 nM. Moreover, in data set [5], the result was Active. Also, in data set [6], the Activity result is “Dose-Dependent Effect”.

Turning to `Cc1ncsc1-c1ccc([C@H](C)NC(=O)[C@@H]2C[C@@H](O)CN2C(=O)[C@@H](NC(=O)COCCn2cc(CCN3CCN(S(=O)(=O)c4ccc(NC(=O)NCc5cccnc5)cc4)CC3)nn2)C(C)(C)C)cc1`, in data set [7], the result was inactive. Besides, the IC50 in data set [1] is 120 nM; in [2], 433 nM. Besides, the half-maximal degradation concentration (DC50) in data set [3] was 50 nM. In [8], the outcome was Active.

Take `Cc1ncsc1-c1ccc([C@H](C)NC(=O)[C@@H]2C[C@@H](O)CN2C(=O)[C@@H](NC(=O)CCCCCCCCCN2CCN(S(=O)(=O)c3ccc(NC(=O)NCc4cccnc4)cc3)CC2)C(C)(C)C)cc1`: the half-inhibitory concentration (IC50) in [1] turned out to be 190 nM; in data set [2] it was 10 nM. In [3], the DC50 amounted to 1.5 nM. The outcome in data set [5] was Active. The Activity entry in data set [6] is “Dose-Dependent Effect”.

Regarding `CC(=O)N[C@H](C(=O)N1C[C@H](O)C[C@H]1C(=O)N[C@@H](C)c1ccc(-c2scnc2C)cc1)C(C)(C)C`, the IC50 is more than 2000 nM in data set [1] and more than 100000 nM in [2].

Take `Cc1ncsc1-c1ccc([C@H](C)NC(=O)[C@@H]2C[C@@H](O)CN2C(=O)[C@@H](NC(=O)COCCOCCn2cc(CCN3CCN(S(=O)(=O)c4ccc(NC(=O)NCc5cccnc5)cc4)CC3)nn2)C(C)(C)C)cc1`: the outcome in [7] was inactive. For the same molecule, the IC50 in [1] was 190 nM; in [2] it was 737 nM. The DC50 in [3] was determined as 50 nM. Moreover, the result in [8] was Active.

Consider `Cc1ncsc1-c1ccc([C@H](C)NC(=O)[C@@H]2C[C@@H](O)CN2C(=O)[C@@H](NC(=O)COCCOCCOCCOCCOCCn2cc(CCN3CCN(S(=O)(=O)c4ccc(NC(=O)NCc5cccnc5)cc4)CC3)nn2)C(C)(C)C)cc1`, for which the outcome in data set [7] was inactive. Besides, the half-maximal inhibitory concentration (IC50) came out at 970 nM in data set [1] and 477 nM in data set [2]. In data set [3], the DC50 was determined as 50 nM. Besides, the result in [8] was Active.

By TGI is commonly meant how far tumour growth fell short of that in controls. On to `O=S(=O)(c1ccc(NC(=S)NCc2cccnc2)cc1)N1CCCCC1`, for which the Activity entry in [9] is on record as “Non-Toxic”. Moreover, the figures for the IC50 in [10] and in [2] were 4600 nM and 130 nM, respectively. Besides, the TGI in [11] is 49.8%.

As to `Cc1ncsc1-c1ccc([C@H](C)NC(=O)[C@@H]2C[C@@H](O)CN2C(=O)[C@@H](NC(=O)COCCN2CCN(S(=O)(=O)c3ccc(NC(=O)NCc4cccnc4)cc3)CC2)C(C)(C)C)cc1`, the figures for the IC50 in [1] and in data set [2] were 160 nM and 5510 nM, respectively. Besides, the DC50 in [3] was more than 100 nM. The result in [4] was inactive.

Take `Cc1ncsc1-c1ccc([C@H](C)NC(=O)[C@@H]2C[C@@H](O)CN2C(=O)[C@@H](NC(=O)COCCOCCOCCOCCN2CCN(S(=O)(=O)c3ccc(NC(=O)NCc4cccnc4)cc3)CC2)C(C)(C)C)cc1`: the Activity entry in data set [12] was “Dose-Dependent Effect”. For the same molecule, the IC50 in data set [1] came out at 130 nM; in data set [2], 173 nM. The DC50 in data set [3] is 19 nM.

`Cc1ncsc1-c1ccc([C@H](C)NC(=O)[C@@H]2C[C@@H](O)CN2C(=O)[C@@H](NC(=O)COCCOCCOCCn2cc(CCN3CCN(S(=O)(=O)c4ccc(NC(=O)NCc5cccnc5)cc4)CC3)nn2)C(C)(C)C)cc1`: in data set [7], the outcome was inactive. Besides, the IC50 in data set [1] came to 94 nM; in data set [2], 487 nM. Besides, in data set [3], the DC50 worked out at 50 nM. Moreover, the outcome in [8] was Active.

With `O=C(/C=C/c1cccnc1)NCCCCC1CCN(C(=O)c2ccccc2)CC1` [DAPORINAD], the Activity result in [13] is reported as “Toxic”; in [14], “Toxic”; in data set [9] it was “Non-Toxic”; in data set [15], “Toxic”. Moreover, in [2], the IC50 was 0.28 nM. Besides, the TGI in data set [11] was determined as 62.9%.

Take `Cc1ncsc1-c1ccc([C@H](C)NC(=O)[C@@H]2C[C@@H](O)CN2C(=O)[C@@H](NC(=O)CCCCCCCN2CCN(S(=O)(=O)c3ccc(NC(=O)NCc4cccnc4)cc3)CC2)C(C)(C)C)cc1`: the IC50 in data set [1] worked out at 100 nM; in data set [2] it was 5.9 nM. Further, the DC50 in [3] is more than 100 nM.

Regarding `Cc1ncsc1-c1ccc([C@H](C)NC(=O)[C@@H]2C[C@@H](O)CN2C(=O)[C@@H](NC(=O)COCCOCCOCCN2CCN(S(=O)(=O)c3ccc(NC(=O)NCc4cccnc4)cc3)CC2)C(C)(C)C)cc1`, the Activity entry in [12] is “Dose-Dependent Effect”. Also, the results for the IC50 in data set [1] and in [2] were 130 nM and 56 nM, respectively. The DC50 in data set [3] was 93 nM.

In the case of `Cc1ncsc1-c1ccc([C@H](C)NC(=O)[C@@H]2C[C@@H](O)CN2C(=O)[C@@H](NC(=O)COCCOCCOCCOCCn2cc(CCN3CCN(S(=O)(=O)c4ccc(NC(=O)NCc5cccnc5)cc4)CC3)nn2)C(C)(C)C)cc1`, the outcome in [7] was inactive. Besides, the IC50 in data set [1] was found to be 83 nM; in data set [2], 401 nM. The DC50 in data set [3] amounted to 50 nM. The result in data set [8] was Active.

Regarding `Cc1ncsc1-c1ccc([C@H](C)NC(=O)[C@@H]2C[C@@H](O)CN2C(=O)[C@@H](NC(=O)CCCCCCCCCCN2CCN(S(=O)(=O)c3ccc(NC(=O)NCc4cccnc4)cc3)CC2)C(C)(C)C)cc1`, the figures for the IC50 in data set [1] and in data set [2] were 230 nM and 30 nM, respectively. The DC50 in [3] was less than 4.6 nM. In data set [5], the outcome was Active. In addition, the Activity entry in data set [6] was “Dose-Dependent Effect”.

Take `Cc1ncsc1-c1ccc([C@H](C)NC(=O)[C@H]2C[C@H](O)CN2C(=O)[C@@H](NC(=O)CCCCCCCCN2CCN(S(=O)(=O)c3ccc(NC(=O)NCc4cccnc4)cc3)CC2)C(C)(C)C)cc1`: the IC50 in [1] was found to be 110 nM; in data set [2] it was 707 nM. The DC50 in data set [3] is more than 10000 nM.

`Cc1ncsc1-c1ccc([C@H](C)NC(=O)[C@@H]2C[C@@H](O)CN2C(=O)[C@@H](NC(=O)COCCOCCOCCOCCOCCN2CCN(S(=O)(=O)c3ccc(NC(=O)NCc4cccnc4)cc3)CC2)C(C)(C)C)cc1`: the Activity entry in [12] was “Dose-Dependent Effect”. The results for the IC50 in data set [1] and in data set [2] were 190 nM and 133 nM, respectively. Besides, the DC50 in data set [3] worked out at 22 nM.
